In patent US20210107874A1, “PHARMACEUTICAL FORMULATION OF CROTONYLAMINOPYRIDINE SALT” (priority 2017, published 2021):
Converted amounts (≈) assume the structure as drawn. “And” between values parts separate entries of the source, which are not always exact repeats. Equal values may be shown once. Read-outs that look alike come from different tables or passages of the source.

Assays:
[1] = PK studies of formulations, plasma by HPLC-MS/MS; format: in vivo; settings: Cattle
Method: The following formulations were prepared and administered to animals. Blood samples were collected at pre-defined time points and the amount of compound present in plasma at the time of sampling was determined by HPLC-MS/MS. Pharmacokinetic parameters were then calculated: Cmax, Tmax, Tlast, AUC. [table]

[2] = Quantitative determination of solubility of compound 5 (UPLC); format: physicochemical; settings: 25 °C, aqueous buffer, thermodynamic from solid
Method: Compound 5 (120 mg) was weighed into shell vials and combined with acid (600 μl of a 350 mM solution of the respective acid in water).

[3] = Formulation with 10% compound 5: stability of clear solution; format: physicochemical; settings: 10% formulation (~100 mg/ml)
[4] = FormO50 (L-tartaric acid, NaOH up to pH 4.4, water), SC, 1 mg/kg
[5] = FormO50 (L-tartaric acid, NaOH up to pH 4.4, water), SC, 5 mg/kg
[6] = FormO100 (L-tartaric acid, NaOH up to pH 4.4, water), SC, 1.5 mg/kg

## COc1cc(NCCNC(=O)/C=C/C(C)(F)F)ccn1 [Compound 5]
[1]; FormO50 (L-tartaric acid, NaOH up to pH 4.4, water), SC, 0.5 mg/kg
  Tlast: 4.4 h
[1]; FormO50 (L-tartaric acid, NaOH up to pH 4.4, water), SC, 0.75 mg/kg
  Tlast: 5.6 h
[1]; [4]
  AUC: 1149 ng·h/mL and 969 ng·h/mL
  Cmax: 705 ng/mL and 815 ng/mL
  Tlast: 6 h and 7 h and 6.8 h
[1]; [5]
  AUC: 8817 ng·h/mL
  Cmax: 5975 ng/mL
  Tlast: 8 h
[1]; FormO50 (L-tartaric acid, NaOH up to pH 4.4, water), SC, 10 mg/kg
  Tlast: 12 h
[1]; [6]
  AUC: 1422 ng·h/mL
  Cmax: 862 ng/mL
  Tlast: 10.0 h and 8.5 h
  Tmax: 22.8 min
[1]; FormU100 (L-tartaric acid, propylene glycol 400 mg, benzylalcohol, water), SC, 1.5 mg/kg
  Tlast: 10.0 h
[1]; FormV100 (L-tartaric acid, propylene glycol 500 mg, benzylalcohol, water), SC, 1.5 mg/kg
  Tlast: 10.0 h
[1]; FormW100 (L-tartaric acid, propylene glycol 300 mg, benzylalcohol, water), SC, 1.5 mg/kg
  Tlast: 9.5 h
[1]; bovine, plasma, sc, 0.5 mg/kg, pH 4.4, FormO50 (L-tartaric acid, NaOH up to pH 4.4, water), 0.5 mg/kg, read-out: AUC
  AUC: 371 ng·h/mL
[1]; bovine, plasma, sc, 0.5 mg/kg, pH 4.4, FormO50 (L-tartaric acid, NaOH up to pH 4.4, water), 0.5 mg/kg, read-out: Cmax
  Cmax: 305 ng/mL
[1]; bovine, plasma, sc, 0.5 mg/kg, pH 4.4, FormO50 (L-tartaric acid, NaOH up to pH 4.4, water), 0.5 mg/kg, read-out: Tmax
  Tmax: 18 min
[1]; bovine, plasma, sc, 0.75 mg/kg, pH 4.4, FormO50 (L-tartaric acid, NaOH up to pH 4.4, water), 0.75 mg/kg, read-out: AUC
  AUC: 616 ng·h/mL
[1]; bovine, plasma, sc, 0.75 mg/kg, pH 4.4, FormO50 (L-tartaric acid, NaOH up to pH 4.4, water), 0.75 mg/kg, read-out: Cmax
  Cmax: 397 ng/mL
[1]; bovine, plasma, sc, 0.75 mg/kg, pH 4.4, FormO50 (L-tartaric acid, NaOH up to pH 4.4, water), 0.75 mg/kg, read-out: Tmax
  Tmax: 30 min
[1]; bovine, plasma, sc, 1 mg/kg, pH 4.4, FormO50 (L-tartaric acid, NaOH up to pH 4.4, water), 1 mg/kg, read-out: AUC
  AUC: 973 ng·h/mL
[1]; bovine, plasma, sc, 1 mg/kg, pH 4.4, FormO50 (L-tartaric acid, NaOH up to pH 4.4, water), 1 mg/kg, read-out: Cmax
  Cmax: 521 ng/mL
[1]; bovine, plasma, sc, 1 mg/kg, pH 4.4, FormO50 (L-tartaric acid, NaOH up to pH 4.4, water), 1 mg/kg, read-out: Tmax
  Tmax: 36 min
[1]; bovine, plasma, sc, 1.5 mg/kg, FormU100 (L-tartaric acid, propylene glycol 400 mg, benzylalcohol, water), 1.5 mg/kg, read-out: AUC
  AUC: 1680 ng·h/mL
[1]; bovine, plasma, sc, 1.5 mg/kg, FormU100 (L-tartaric acid, propylene glycol 400 mg, benzylalcohol, water), 1.5 mg/kg, read-out: Cmax
  Cmax: 593 ng/mL
[1]; bovine, plasma, sc, 1.5 mg/kg, FormU100 (L-tartaric acid, propylene glycol 400 mg, benzylalcohol, water), 1.5 mg/kg, read-out: Tmax
  Tmax: 37.8 min
[1]; bovine, plasma, sc, 1.5 mg/kg, FormV100 (L-tartaric acid, propylene glycol 500 mg, benzylalcohol, water), 1.5 mg/kg, read-out: AUC
  AUC: 1520 ng·h/mL
[1]; bovine, plasma, sc, 1.5 mg/kg, FormV100 (L-tartaric acid, propylene glycol 500 mg, benzylalcohol, water), 1.5 mg/kg, read-out: Cmax
  Cmax: 540 ng/mL
[1]; bovine, plasma, sc, 1.5 mg/kg, FormV100 (L-tartaric acid, propylene glycol 500 mg, benzylalcohol, water), 1.5 mg/kg, read-out: Tmax
  Tmax: 105 min
[1]; bovine, plasma, sc, 1.5 mg/kg, FormW100 (L-tartaric acid, propylene glycol 300 mg, benzylalcohol, water), 1.5 mg/kg, read-out: AUC
  AUC: 1520 ng·h/mL
[1]; bovine, plasma, sc, 1.5 mg/kg, FormW100 (L-tartaric acid, propylene glycol 300 mg, benzylalcohol, water), 1.5 mg/kg, read-out: Cmax
  Cmax: 743 ng/mL
[1]; bovine, plasma, sc, 1.5 mg/kg, FormW100 (L-tartaric acid, propylene glycol 300 mg, benzylalcohol, water), 1.5 mg/kg, read-out: Tmax
  Tmax: 52.8 min
[1]; bovine, plasma, sc, 1.5 mg/kg, pH 4.4, FormO100 (L-tartaric acid, NaOH up to pH 4.4, water), 1.5 mg/kg, read-out: AUC
  AUC: 1680 ng·h/mL
[1]; bovine, plasma, sc, 1.5 mg/kg, pH 4.4, FormO100 (L-tartaric acid, NaOH up to pH 4.4, water), 1.5 mg/kg, read-out: Cmax
  Cmax: 1010 ng/mL
[1]; bovine, plasma, sc, 1.5 mg/kg, pH 4.4, FormO100 (L-tartaric acid, NaOH up to pH 4.4, water), 1.5 mg/kg, read-out: Tmax
  Tmax: 18.6 min
[1]; bovine, plasma, sc, 5 mg/kg, pH 4.4, FormO50 (L-tartaric acid, NaOH up to pH 4.4, water), 5 mg/kg, read-out: AUC
  AUC: 7890 ng·h/mL
[1]; bovine, plasma, sc, 5 mg/kg, pH 4.4, FormO50 (L-tartaric acid, NaOH up to pH 4.4, water), 5 mg/kg, read-out: Cmax
  Cmax: 3310 ng/mL
[1]; bovine, plasma, sc, 5 mg/kg, pH 4.4, FormO50 (L-tartaric acid, NaOH up to pH 4.4, water), 5 mg/kg, read-out: Tmax
  Tmax: 24 min
[1]; bovine, plasma, sc, 10 mg/kg, pH 4.4, FormO50 (L-tartaric acid, NaOH up to pH 4.4, water), 10 mg/kg, read-out: AUC
  AUC: 18800 ng·h/mL
[1]; bovine, plasma, sc, 10 mg/kg, pH 4.4, FormO50 (L-tartaric acid, NaOH up to pH 4.4, water), 10 mg/kg, read-out: Cmax
  Cmax: 5930 ng/mL
[1]; bovine, plasma, sc, 10 mg/kg, pH 4.4, FormO50 (L-tartaric acid, NaOH up to pH 4.4, water), 10 mg/kg, read-out: Tmax
  Tmax: 36 min
[2]; aqueous acid solution (350 mM citric acid in water), Citric acid 350 mM in water, read-out: Solubility T = 1 Day
  solubility at 1 day: 160 mg/mL (≈ 559 mM)
[2]; aqueous acid solution (350 mM citric acid in water), Citric acid 350 mM in water, read-out: Solubility T = 1 Day Average
  solubility at 1 day: 149 mg/mL (≈ 523 mM)
[2]; aqueous acid solution (350 mM citric acid in water), Citric acid 350 mM in water, read-out: Solubility T = 3 Days
  solubility at 3 days: 153 mg/mL (≈ 536 mM)
[2]; aqueous acid solution (350 mM citric acid in water), Citric acid 350 mM in water, read-out: Solubility T = 3 Days Average
  solubility at 3 days: 151 mg/mL (≈ 529 mM)
[2]; aqueous acid solution (350 mM ethanesulfonic acid in water), Ethanesulfonic acid 350 mM in water, read-out: Solubility T = 1 Day
  solubility at 1 day: 155 mg/mL (≈ 543 mM)
[2]; aqueous acid solution (350 mM ethanesulfonic acid in water), Ethanesulfonic acid 350 mM in water, read-out: Solubility T = 1 Day Average
  solubility at 1 day: 145 mg/mL (≈ 507 mM)
[2]; aqueous acid solution (350 mM ethanesulfonic acid in water), Ethanesulfonic acid 350 mM in water, read-out: Solubility T = 3 Days
  solubility at 3 days: 167 mg/mL (≈ 587 mM)
[2]; aqueous acid solution (350 mM ethanesulfonic acid in water), Ethanesulfonic acid 350 mM in water, read-out: Solubility T = 3 Days Average
  solubility at 3 days: 165 mg/mL (≈ 578 mM)
[2]; aqueous acid solution (350 mM fumaric acid in water), Fumaric acid 350 mM in water, read-out: Solubility T = 1 Day
  solubility at 1 day: 152 mg/mL (≈ 531 mM)
[2]; aqueous acid solution (350 mM fumaric acid in water), Fumaric acid 350 mM in water, read-out: Solubility T = 1 Day Average
  solubility at 1 day: 149 mg/mL (≈ 522 mM)
[2]; aqueous acid solution (350 mM fumaric acid in water), Fumaric acid 350 mM in water, read-out: Solubility T = 3 Days
  solubility at 3 days: 140 mg/mL (≈ 490 mM)
[2]; aqueous acid solution (350 mM fumaric acid in water), Fumaric acid 350 mM in water, read-out: Solubility T = 3 Days Average
  solubility at 3 days: 153 mg/mL (≈ 535 mM)
[2]; aqueous acid solution (350 mM malic acid in water), Malic acid 350 mM in water, read-out: Solubility T = 1 Day
  solubility at 1 day: 129 mg/mL (≈ 451 mM)
[2]; aqueous acid solution (350 mM malic acid in water), Malic acid 350 mM in water, read-out: Solubility T = 1 Day Average
  solubility at 1 day: 122 mg/mL (≈ 427 mM)
[2]; aqueous acid solution (350 mM malic acid in water), Malic acid 350 mM in water, read-out: Solubility T = 3 Days
  solubility at 3 days: 117 mg/mL (≈ 409 mM)
[2]; aqueous acid solution (350 mM malic acid in water), Malic acid 350 mM in water, read-out: Solubility T = 3 Days Average
  solubility at 3 days: 116 mg/mL (≈ 408 mM)
[2]; aqueous acid solution (350 mM oxalic acid in water), Oxalic acid 350 mM in water, read-out: Solubility T = 1 Day
  solubility at 1 day: 149 mg/mL (≈ 523 mM)
[2]; aqueous acid solution (350 mM oxalic acid in water), Oxalic acid 350 mM in water, read-out: Solubility T = 1 Day Average
  solubility at 1 day: 142 mg/mL (≈ 498 mM)
[2]; aqueous acid solution (350 mM oxalic acid in water), Oxalic acid 350 mM in water, read-out: Solubility T = 3 Days
  solubility at 3 days: 155 mg/mL (≈ 544 mM)
[2]; aqueous acid solution (350 mM oxalic acid in water), Oxalic acid 350 mM in water, read-out: Solubility T = 3 Days Average
  solubility at 3 days: 155 mg/mL (≈ 544 mM)
[2]; aqueous acid solution (350 mM oxoglutaric acid in water), Oxoglutaric acid 350 mM in water, read-out: Solubility T = 1 Day
  solubility at 1 day: 128 mg/mL (≈ 447 mM)
[2]; aqueous acid solution (350 mM oxoglutaric acid in water), Oxoglutaric acid 350 mM in water, read-out: Solubility T = 1 Day Average
  solubility at 1 day: 129 mg/mL (≈ 453 mM)
[2]; aqueous acid solution (350 mM oxoglutaric acid in water), Oxoglutaric acid 350 mM in water, read-out: Solubility T = 3 Days
  solubility at 3 days: 135 mg/mL (≈ 472 mM)
[2]; aqueous acid solution (350 mM oxoglutaric acid in water), Oxoglutaric acid 350 mM in water, read-out: Solubility T = 3 Days Average
  solubility at 3 days: 134 mg/mL (≈ 468 mM)
[2]; aqueous acid solution (350 mM tartaric acid in water), Tartaric acid 350 mM in water, read-out: Solubility T = 1 Day
  solubility at 1 day: 117 mg/mL (≈ 410 mM)
[2]; aqueous acid solution (350 mM tartaric acid in water), Tartaric acid 350 mM in water, read-out: Solubility T = 1 Day Average
  solubility at 1 day: 137 mg/mL (≈ 481 mM)
[2]; aqueous acid solution (350 mM tartaric acid in water), Tartaric acid 350 mM in water, read-out: Solubility T = 3 Days
  solubility at 3 days: 162 mg/mL (≈ 567 mM)
[2]; aqueous acid solution (350 mM tartaric acid in water), Tartaric acid 350 mM in water, read-out: Solubility T = 3 Days Average
  solubility at 3 days: 163 mg/mL (≈ 571 mM)
[3]; pH of 4.4, equimolar Citric acid
  stability (remains clear solution): 3 months
[3]; pH of 4.4, equimolar Malic acid
  stability (remains clear solution): 3 months
[3]; pH of 4.4, equimolar Tartaric acid
  stability (remains clear solution): 3 months
